Assay results published in patent US9113650B2, “Pectic enzyme treated pectin, method of producing the same and application thereof” (NATIONAL PINGTUNG UNIVERSITY OF SCIENCE AND TECHNOLOGY, priority 2011, dated 2015).
Marks after values point to notes of the source that are not given here.

Legend:
Type in all cases: biochemical
[1] = DPPH radical scavenging activity
Protocol: 4 mL of sample solutions (i.e. pectin solution, PET-pectin solution, BHT solution or Vit. […] And then, the light absorbance of those mixtures at 517 nm was detected by the spectrophotometer, and their DPPH radical scavenging activities (%) were calculated according to the following formula (I), in which the lower light absorbance was referred to the stronger DPPH radical scavenging activity. Each data of TABLE 4 is referred to the mean of samples in triplicate and the result is listed in the third column of TABLE 4. [formula]

[2] = Trolox equivalent antioxidant capacity (TEAC), ABTS
Protocol: The ABTS could serve as the free radical source. After the mixture reacted in the dark for 12 to 16 hours and generated stably blue-green ABTS, followed by adding 0.25 mL of various concentrations of sample solutions (i.e. pectin solution, PET-pectin solution, BHT solution or Vit. E solution listed in TABLE 2) and reacting for 10 minutes. And then, the light absorbance of those mixtures at 734 nm was detected by the spectrophotometer, and the result was listed in TABLE 4. Each data of TABLE 4 was referred to the mean of samples in at least or more than triplicate. […] E analogue; Sigma, St. Louis, Mo., U.S.A.) standard curve established by using different concentrations of trolox as a reference. The results of TEAC are shown in FIG. 2 and the fourth column of TABLE 4.

[3] = Reducing power (Prussian blue, OD700 nm)
Protocol: The reducing power of PET-pectin was determined by using the yield of Prussian blue [ferric ferrocyanide; […] In brief, three-valent […] ion (Fe^3+) of red blood salt (potassium […]; […] And then, the light absorbance of Prussian blue at 700 nm was detected to evaluate the reducing power, in which the higher light absorbance was referred to the stronger reducing power. This EXAMPLE could use the conventional method. The PET-pectin was prepared to various concentrations, each 20 μL aliquot of the sample solutions (i.e. pectin solution, PET-pectin solution, BHT solution or Vit. E solution listed in TABLE 2) was added with 50 μL of 0.2 M phosphate buffer (pH 6.6) containing 1% red blood salt [K3Fe(CN)6], incubated in water bath at 50° C. for 20 minutes and added with 50 μL of 10% trichloroacetic acid (TCA) solution. […] The absorbance at 700 nm is measured by the spectrophotometer and listed in the fifth column of TABLE 4, in which the higher light absorbance is referred to the stronger reducing power. Each data of TABLE 4 is referred to the mean of samples in at least or more than triplicate.

Structure (SMILES)	DPPH radical scavenging activity(%) ([1]; concentration 0.01 mg/mL)	DPPH radical scavenging activity(%) ([1]; concentration 0.10 mg/mL)	TEAC (mM Trolox) ([2]; concentration 0.01 mg/mL)	TEAC (mM Trolox) ([2]; concentration 0.10 mg/mL)	Reducing Power (OD700 nm) ([3]; concentration 0.01 mg/mL)	Reducing Power (OD700 nm) ([3]; concentration 0.10 mg/mL)
Cc1cc(C(C)(C)C)c(O)c(C(C)(C)C)c1 [Butylated hydroxytoluene (BHT), Butylated hydroxytoluene]	5.2 ± 0.4^e %	49.2 ± 2.9^c %	0.4 ± 0.0^d mM Trolox	1.3 ± 0.2^c mM Trolox	0.5 ± 0.0^d OD700 nm	1.7 ± 0.1^b OD700 nm
Cc1c(C)c2c(c(C)c1O)CC[C@@](C)(CCC[C@H](C)CCC[C@H](C)CCCC(C)C)O2 [α-tocopherol (Vit. E), α-tocopherol]	46.1 ± 0.4^d %	96.8 ± 0.5^a %	0.5 ± 0.0^d mM Trolox	3.5 ± 0.1^b mM Trolox	0.6 ± 0.0^d OD700 nm	2.5 ± 0.0^a OD700 nm
